The target in experiment [1] is T1, recombinant human muscarinic receptor m3 (Homo sapiens, UniProt P20309).
T1 construct: expressed in transfected cells; host or cells: Chinese hamster ovary (CHO) cells, membrane preparation
In words: Radioligand binding studies, [3H]N-methyl scopolamine, scintillation proximity assay. Conditions: CHO cell membranes, pIC50 converted to pKi by Cheng-Prusoff. On the procedure:
(§1) The compounds of this invention are muscarinic receptor antagonists. The muscarinic receptor affinity of test compounds can be determined by an in vitro receptor binding assay which utilizes a cell membrane preparation from the Chinese hamster ovary cells expressing the recombinant human muscarinic receptors (M1-M5), and is described in more detail in Example 18.
(§2) The inhibitory activity of compounds of this invention in vitro was determined using a modification of the method described in Hegde, S. S. et al. (1997) Br. J. Pharmacol., 120, 1409-1418.
(§3) Cell membranes from Chinese hamster ovary cells expressing the recombinant human muscarinic receptors (m1-m5) were employed. The assays were conducted with the radioligand [^3H]N-methyl scopolamine(0.4 nM, specific activity 84 Ci·mmol^−1) in a final volume of 0.25 mL Tris-Krebs buffer. Non-specific binding was defined with 1 μM atropine. Assays were performed using scintillation proximity assay technology. Competition-displacement curves were generated using 10 concentrations of test compounds and were analyzed by iterative curve fitting to a four parameter logistic equation. pIC50 values (−log of the IC50) were converted to pKi values using the Cheng-Prusoff equation.
(In a scintillation proximity assay essentially only radioactivity close to the scintillant gives light.)

In experiment [2] the target is T2, recombinant human muscarinic receptor m2 (Homo sapiens, UniProt P08172).
T2 construct: expressed in transfected cells; host or cells: Chinese hamster ovary (CHO) cells, membrane preparation
T2 sequence (P08172 1-466): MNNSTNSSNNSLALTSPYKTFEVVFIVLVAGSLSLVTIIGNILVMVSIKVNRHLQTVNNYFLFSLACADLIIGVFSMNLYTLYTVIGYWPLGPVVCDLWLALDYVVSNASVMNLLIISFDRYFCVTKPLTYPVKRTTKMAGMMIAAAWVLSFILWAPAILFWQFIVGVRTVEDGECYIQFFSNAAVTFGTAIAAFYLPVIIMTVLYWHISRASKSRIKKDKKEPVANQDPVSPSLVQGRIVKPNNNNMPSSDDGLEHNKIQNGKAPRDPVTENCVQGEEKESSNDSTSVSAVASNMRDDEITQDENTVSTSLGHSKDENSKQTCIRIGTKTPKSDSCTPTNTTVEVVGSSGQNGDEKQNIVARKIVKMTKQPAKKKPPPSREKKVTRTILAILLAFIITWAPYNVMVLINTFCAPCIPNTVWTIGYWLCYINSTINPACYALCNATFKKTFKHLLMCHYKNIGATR
Described as above. Conditions: CHO cell membranes, pIC50 converted to pKi by Cheng-Prusoff. On the procedure: as §1, §2, §3

T1 sequence (P20309 whole entry): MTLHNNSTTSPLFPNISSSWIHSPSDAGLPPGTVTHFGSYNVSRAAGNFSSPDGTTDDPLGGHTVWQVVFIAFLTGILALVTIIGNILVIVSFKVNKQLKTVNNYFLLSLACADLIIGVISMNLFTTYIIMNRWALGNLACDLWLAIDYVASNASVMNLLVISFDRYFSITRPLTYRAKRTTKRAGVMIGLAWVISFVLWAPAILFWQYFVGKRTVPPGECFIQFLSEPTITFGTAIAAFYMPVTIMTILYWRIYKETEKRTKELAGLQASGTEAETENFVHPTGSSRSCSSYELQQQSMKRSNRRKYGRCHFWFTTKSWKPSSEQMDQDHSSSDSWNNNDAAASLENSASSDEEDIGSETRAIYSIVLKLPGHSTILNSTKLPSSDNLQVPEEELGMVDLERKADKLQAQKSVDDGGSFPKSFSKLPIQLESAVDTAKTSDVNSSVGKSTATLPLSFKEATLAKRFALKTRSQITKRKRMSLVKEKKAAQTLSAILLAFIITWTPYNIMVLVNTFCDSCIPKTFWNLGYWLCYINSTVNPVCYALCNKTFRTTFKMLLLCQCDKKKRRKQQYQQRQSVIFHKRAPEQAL

Regarding `CCCN(CC1CCN(S(C)(=O)=O)CC1)C1CCc2ccc(-c3ccco3)cc2C1` (stereo not drawn) [Cpd 117, (7-furan-2-yl-1,2,3,4-tetrahydro-naphthalen-2-yl)-(1-methanesulfonyl-piperidin-4-ylmethyl)-propyl-amine], the inhibition constant (Ki) in experiment [1] was 0.603 µM; in experiment [2] it was 0.141 µM.
For the compound `CCCN(CCC1CCN(C(=O)C2CCNCC2)CC1)[C@@H]1CCc2ccc(OC)cc2C1` [Cpd 116, (4-{2-[((R)-7-methoxy-1,2,3,4-tetrahydro-naphthalen-2-yl)-propyl-amino]-ethyl}-piperidin-1-yl)-piperidin-4-yl-methanone], the Ki is 5.13 µM in experiment [1] and 0.00251 µM in experiment [2].
In the same order, the values of `CCCN(CC1CCN(C(=O)c2ccco2)CC1)C1CCc2cc(OC)c(OC)cc2C1` (stereo not drawn) [Cpd 70, (4-{[(6,7-dimethoxy-1,2,3,4-tetrahydro-naphthalen-2-yl)-propyl-amino]-methyl}-piperidin-1-yl)-furan-2-yl-methanone] are 0.331 µM and 0.0427 µM.
Consider `CCN(CC1CCN(C(=O)N2CCOCC2)CC1)C1CCc2ccc(NC(=O)c3ccc(S(C)(=O)=O)cc3)cc2C1` (stereo not drawn) [Cpd 2, N-(7-{ethyl-[1-(morpholine-4-carbonyl)-piperidin-4-ylmethyl]-amino}-5,6,7,8-tetrahydro-naphthalen-2-yl)-4-methanesulfonyl-benzamide], for which the Ki is 1.2 µM in experiment [1] and 0.0479 µM in experiment [2].
Consider `CCCN(CC1CCN(C(=O)N2CCOCC2)CC1)C1CCc2ccc(N)cc2C1` (stereo not drawn) [Cpd 95, (4-{[(7-amino-1,2,3,4-tetrahydro-naphthalen-2-yl)-propyl-amino]-methyl}-piperidin-1-yl)-morpholin-4-yl-methanone], for which the Ki in experiment [1] was 0.186 µM; in experiment [2] it was 0.00525 µM.
For `CCCN(CC1CCN(S(C)(=O)=O)CC1)C1CCc2ccc(OCC)cc2C1` (stereo not drawn) [Cpd 104, (7-ethoxy-1,2,3,4-tetrahydro-naphthalen-2-yl)-(1-methanesulfonyl-piperidin-4-ylmethyl)-propyl-amine], in that order: 0.0468 µM and 0.0162 µM.
In the same order, the values of `CCCN(CC1CCN(S(C)(=O)=O)CC1)C1CCc2ccc(N)cc2C1` (stereo not drawn) [Cpd 85, N-(1-methanesulfonyl-piperidin-4-ylmethyl)-N-propyl-1,2,3,4-tetrahydro-naphthalene-2,7-diamine] are 0.166 µM and 0.0129 µM.
For `CCN(CC1CCN(C(=O)NC(C)C)CC1)C1CCc2ccc(NC(=O)c3ccc(F)cc3)cc2C1` (stereo not drawn) [Cpd 7, 4-({ethyl-[7-(4-fluoro-benzoylamino)-1,2,3,4-tetrahydro-naphthalen-2-yl]-amino}-methyl)-piperidine-1-carboxylic acid isopropylamide], in that order: 0.646 µM and 0.0105 µM.
Turning to `CCCN(CC1CCN(C(=O)c2ccno2)CC1)C1CCc2ccc(OS(=O)(=O)C(F)(F)F)cc2C1` (stereo not drawn) [Cpd 107, trifluoro-methanesulfonic acid 7-{[1-(isoxazole-5-carbonyl)-piperidin-4-ylmethyl]-propyl-amino}-5,6,7,8-tetrahydro-naphthalen-2-yl ester], the values for the Ki in experiment [1] and in experiment [2] were 0.148 µM and 0.0162 µM, respectively.
For `CCCN(CC1CCN(C(=O)N2CCN(C)CC2)CC1)C1CCc2ccc(OS(=O)(=O)c3c(C)noc3C)cc2C1` (stereo not drawn) [Cpd 115, 3,5-dimethyl-isoxazole-4-sulfonic acid 7-{[1-(4-methyl-piperazine-1-carbonyl)-piperidin-4-ylmethyl]-propyl-amino}-5,6,7,8-tetrahydro-naphthalen-2-yl ester], in that order: 0.0676 µM and 0.0219 µM.
In the case of `CCCN(CC1CCN(C(=O)C2CCNCC2)CC1)C1CCc2ccc(OS(=O)(=O)c3c(C)noc3C)cc2C1` (stereo not drawn) [Cpd 114, 3,5-dimethyl-isoxazole-4-sulfonic acid 7-{[1-(piperidine-4-carbonyl)-piperidin-4-ylmethyl]-propyl-amino}-5,6,7,8-tetrahydro-naphthalen-2-yl ester], the values for the inhibition constant (Ki) in experiment [1] and in experiment [2] were 0.0513 µM and 0.00126 µM, respectively.
For `CCCN(CC1CCN(C(=O)NC)CC1)C1CCc2ccc(OC)cc2C1` (stereo not drawn) [Cpd 25, 4-{[(7-methoxy-1,2,3,4-tetrahydro-naphthalen-2-yl)-propyl-amino]-methyl}-piperidine-1-carboxylic acid methylamide], in that order: 0.102 µM and 0.0251 µM.

Usually Ki stands for the dissociation constant of the complex between target and ligand, obtained from inhibition or displacement.

The record behind these values is patent publication US6864266B2, “4-piperidinyl alkyl amine derivatives as muscarinic receptor antagonists” (Syntex (U.S.A.) LLC, priority 2001, dated 2005).
